Experimental findings from PMC8460919, “Novel Angiotensin-I Converting Enzyme Inhibitory Peptides Isolated From Rice Wine Lees: Purification, Characterization, and Structure-Activity Relationship” (Frontiers in Nutrition, 2021) are described below.

Data set [1] deals with T1, ACE (Oryctolagus cuniculus, UniProt P12822).
T1 construct: Angiotensin-I converting enzyme (from rabbit lung); purchased Sigma Co., USA; host or cells: rabbit lung (tissue-derived)
T1 sequence (P12822 34-1310): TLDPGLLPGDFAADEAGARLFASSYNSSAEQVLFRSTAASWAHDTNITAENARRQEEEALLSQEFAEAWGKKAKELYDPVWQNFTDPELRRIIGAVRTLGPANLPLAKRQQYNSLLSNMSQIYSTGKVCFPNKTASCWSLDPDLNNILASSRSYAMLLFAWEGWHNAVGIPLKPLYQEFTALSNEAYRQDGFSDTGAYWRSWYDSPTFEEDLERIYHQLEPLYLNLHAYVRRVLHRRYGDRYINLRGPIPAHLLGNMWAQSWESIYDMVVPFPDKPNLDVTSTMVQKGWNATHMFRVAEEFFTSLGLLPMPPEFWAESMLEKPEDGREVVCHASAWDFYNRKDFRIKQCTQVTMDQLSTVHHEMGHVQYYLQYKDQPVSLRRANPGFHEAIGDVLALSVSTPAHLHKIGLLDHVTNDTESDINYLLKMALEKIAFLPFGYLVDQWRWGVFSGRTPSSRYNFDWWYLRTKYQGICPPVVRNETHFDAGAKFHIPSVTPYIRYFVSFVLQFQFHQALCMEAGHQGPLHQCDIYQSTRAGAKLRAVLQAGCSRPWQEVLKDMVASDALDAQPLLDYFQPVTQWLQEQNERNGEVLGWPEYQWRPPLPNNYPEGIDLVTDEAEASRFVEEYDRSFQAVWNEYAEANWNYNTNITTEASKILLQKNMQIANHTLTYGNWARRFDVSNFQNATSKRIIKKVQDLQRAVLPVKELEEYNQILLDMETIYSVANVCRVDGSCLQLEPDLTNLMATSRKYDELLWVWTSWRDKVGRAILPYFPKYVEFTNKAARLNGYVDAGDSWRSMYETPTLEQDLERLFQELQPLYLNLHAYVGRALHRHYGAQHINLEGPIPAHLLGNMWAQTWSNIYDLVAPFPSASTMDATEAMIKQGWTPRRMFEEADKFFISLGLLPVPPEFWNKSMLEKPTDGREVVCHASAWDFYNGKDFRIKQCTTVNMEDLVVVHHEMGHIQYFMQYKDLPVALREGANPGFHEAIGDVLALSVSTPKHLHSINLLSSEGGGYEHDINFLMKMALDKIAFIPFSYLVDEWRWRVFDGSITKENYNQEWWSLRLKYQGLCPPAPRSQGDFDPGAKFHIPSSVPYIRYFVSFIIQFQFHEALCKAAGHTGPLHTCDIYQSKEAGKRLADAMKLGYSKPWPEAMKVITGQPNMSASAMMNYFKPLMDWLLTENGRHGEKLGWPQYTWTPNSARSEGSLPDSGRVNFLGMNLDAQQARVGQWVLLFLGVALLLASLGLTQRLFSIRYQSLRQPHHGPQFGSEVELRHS
Nature of the data set: Kinetic parameters of ACE inhibition (Lineweaver-Burk plots). The conditions noted are these: for type of ACE inhibition: Lineweaver-Burk plots, peptides at 0.05 or 0.1 mg/ml. In kind it is biochemical, rabbit. As for the experimental part:
Angiotensin-I converting enzyme inhibition of purified peptides was determined using Lineweaver–Burk plots according to reported methods ([32]). Samples were added at two fixed concentrations to each reaction mixture, and enzyme activity was measured for different concentrations of the substrate HHL according to the ACE inhibition assay. The curves were described by 1/area and 1/[S], and the kinetics of ACE inhibitors were estimated by comparing the resulting curves.
To clarify the kinetics of inhibition, Lineweaver–Burk plots were generated. Various concentrations of substrate were incubated with ACE solution in the absence or presence of RWLE peptides at 0.05 or 0.1 mg/ml.

In data set [2] the test system is pepsin, chymotrypsin. The data set can be described thus: Stability of peptides during in vitro digestion by gastrointestinal enzymes (ACEi activity after digestion). The conditions noted are these: in vitro digestion by pepsin and chymotrypsin. It is filed as in vitro ADME. As for the experimental part: Peptide stability was measured according to the methods described in Chen et al. ([30]) with some modifications. For this assay, 2% (w/w) pepsin was dissolved in a KCl–HCl buffer (0.1 mM) adjusted to pH 2.0, and 2% (w/w) chymotrypsin was dissolved in a KCl–NaOH (0.1 mM) buffer adjusted to pH 7.0. Peptides were dissolved at 1 mg/ml in pepsin or chymotrypsin solutions and incubated at 37°C for 4 h. Reactions were terminated by boiling for 15 min. After centrifugation at 4,000 rpm for 15 min, the supernatant was collected, pH was adjusted to 8.0, and samples were assayed for ACEi activity. The supernatant was also analyzed using the previously described RP-HPLC conditions to evaluate changes to the peptides after in vitro digestion.
Control groups were prepared by incubating inactivated pepsin and/or chymotrypsin (boiled for 15 min) with the sample peptides. After incubation, the mixture was processed and analyzed as described.

The target of data set [3] is T2, Angiotensin-I converting enzyme (from rabbit lung) (Oryctolagus cuniculus, UniProt P12822).
T2 construct: Angiotensin-I converting enzyme (from rabbit lung); purchased Sigma Co., USA; host or cells: rabbit lung (tissue-derived)
T2 sequence (P12822 34-1310): T1 sequence (P12822 34-1310)
The data set can be described thus: ACE inhibitory activity (HHL substrate, hippuric acid by HPLC). In kind it is biochemical. The conditions noted are these: for inhibition at 1000 µg/mL: concentration 1 mg/ml. The procedure: (§1) Rice wine lees was obtained from Guangdong Shunde Winery Co., Ltd., Shunde, China. Angiotensin-I converting enzyme (from rabbit lung) and N-Hippuryl-His-Leu hydrate (HHL) were purchased from Sigma Co., USA. Other chemicals and reagents were of analytical grade.
Angiotensin-I converting enzyme inhibitory activity was measured using the method described in Wu et al. ([29]) with some modifications. For each reaction, 10 μl of 0.25 U/ ml ACE solution (prepared in 0.01 M potassium phosphate buffer containing 0.5 M NaCl, pH 7.0) was mixed with 10 μl of inhibitor solution and incubated for 5 min at 37°C. Subsequently, 30 μl of HHL solution (5 mM in 0.1 M sodium borate buffer containing 0.3 M NaCl, pH 8.3) was added, followed by incubation at 37°C for 1 h. The reaction was terminated with the addition of 70 μl 1 M HCl before subsequent assays were performed. For the control group, 10 μl ACE solution and 80 μl 1 M HCl were simultaneously added to the mixture. A blank sample was prepared by replacing the inhibitor solution with 10 μl borate buffer. […] Angiotensin-I converting enzyme activity (%) was calculated according to the following equation:
ACE inhibition(%) = (A1-A2)-B/(A1-A2)×100%
Where A1, A2, and B are peak areas corresponding to Hippuric Acid in the control group, the blank and the sample, respectively.

Data set [4] addresses T1, ACE. Nature of the data set: Stability of peptides against ACE (pre-incubation with ACE, then ACEi assay). The conditions noted are these: for category of ACEi peptide from ACE pre-incubation test: true inhibitor / real substrate / pro-drug type. In kind it is in vitro ADME, rabbit. As for the experimental part:
as §1
The stability of peptides against ACE was assayed according to the methods of Deng ([31]), with some modifications. For each reaction, 30 μl of peptides (2 mg/ml) was combined with 30 μl 0.25 U/ml ACE solution and incubated at 37°C for 30 min. Angiotensin-I converting enzyme was then inactivated by boiling the solution for 10 min. As described in section Measurement of ACEi Activity, 20 μl of each peptide sample was used for the detection of ACEi activity.

Setting [5] is: peptide concentration 0.05 mg/ml.
[6] abbreviates: peptide concentration 0.1 mg/ml.

Read-outs that look alike come from different tables or passages of the source. Residues, ends and D or L forms follow the SMILES beside them.

Consider `CC[C@H](C)[C@H](NC(=O)[C@@H](N)CC(C)C)C(=O)N[C@H](C(=O)N1CCC[C@H]1C(=O)N[C@@H](CCC(N)=O)C(=O)N[C@@H](Cc1c[nH]cn1)C(=O)O)[C@@H](C)CC` [H5, LIIPQH] (H-LIIPQH-OH; N-terminus and C-terminus assumed), for which the “type of ACE inhibition” value in data set [1] is given as “non-competitive inhibitors (mostly mixed-type)”; in data set [1] (listed as LIIPQH), “mixed-type ACE inhibitors”. Besides, the Vm in data set [1] (setting [5]) was 0.120 ΔA/min; in data set [1] (setting [6]) it was 0.070 ΔA/min. Moreover, the “stability against gastrointestinal enzymes” value is “stable within the gastrointestinal environment” in data set [2] and “stable” in data set [2] (listed as LIIPQH). For the same molecule, the inhibition (in general, the relative decrease from the control value, in per cent) at 1000 µg/mL in data set [3] came to 89.3%. Moreover, the “stability against ACE” value in data set [4] was “stable”. Further, in data set [4], the “category of ACEi peptide from ACE pre-incubation test” value is listed as “pro-drug ACE-inhibitors”.

With `CC[C@H](C)[C@H](NC(=O)[C@@H](N)CC(C)C)C(=O)N[C@H](C(=O)N1CCC[C@H]1C(=O)N[C@@H](CCC(=O)O)C(=O)N[C@@H](Cc1c[nH]cn1)C(=O)O)[C@@H](C)CC` [H6, LIIPEH] (H-LIIPEH-OH; N-terminus and C-terminus assumed), the “type of ACE inhibition” value in data set [1] is given as “non-competitive inhibitors (mostly mixed-type)”; in data set [1] (listed as LIIPEH) it was “mixed-type ACE inhibitors”. Moreover, the Vm in data set [1] (setting [5]) is reported as 0.099 ΔA/min; in data set [1] (setting [6]) it was 0.049 ΔA/min. Also, the “stability against gastrointestinal enzymes” value in data set [2] is “stable within the gastrointestinal environment”; in data set [2] (listed as LIIPEH) it was “stable”. Also, in data set [3], the inhibition at 1000 µg/mL is 91.7%. Moreover, the IC50 (commonly the midpoint of a concentration-inhibition curve) was 0.0839 mM in data set [3] (products of each purification step (natural, from RWLE)); 0.0786 mM in data set [3] (synthetic peptides); 0.0513 mM in data set [4] (control (co-incubation with inactive ACE), read-out: IC50 without pre-incubation (converted)); 0.0707 mM in data set [4] (pre-incubation with ACE, 37°C 30 min, read-out: IC50 with pre-incubation (converted)). Also, in data set [4], the “stability against ACE” value is reported as “stable”. Besides, the “category of ACEi peptide from ACE pre-incubation test” value in data set [4] is on record as “pro-drug ACE-inhibitors”.

On to `CC[C@H](C)[C@H](N)C(=O)N[C@H](C(=O)N1CCC[C@H]1C(=O)N[C@@H](CCC(N)=O)C(=O)N[C@@H](Cc1c[nH]cn1)C(=O)O)[C@@H](C)CC` [IIPQH] (H-IIPQH-OH; N-terminus and C-terminus assumed), for which, in data set [3] (synthetic peptides), the IC50 was 1.78 mM.

In the case of `CC[C@H](C)[C@H](NC(=O)[C@@H](N)CC(C)C)C(=O)N[C@H](C(=O)N1CCC[C@H]1C(=O)N[C@@H](CCC(N)=O)C(=O)N[C@@H](Cc1c[nH]cn1)C(=O)N[C@@H](Cc1c[nH]cn1)C(=O)O)[C@@H](C)CC` [LIIPQHH] (H-LIIPQHH-OH; N-terminus and C-terminus assumed), the IC50 in data set [3] (synthetic peptides) was 1.41 mM.

In turn, `CC[C@H](C)[C@H](NC(=O)[C@@H](N)CC(C)C)C(=O)N[C@H](C(=O)N1CCC[C@H]1C(=O)N[C@@H](CCC(N)=O)C(=O)N[C@@H](Cc1c[nH]cn1)C(=O)N[C@@H](Cc1ccc(O)cc1)C(=O)O)[C@@H](C)CC` [LIIPQHY] (H-LIIPQHY-OH; N-terminus and C-terminus assumed) showed an IC50 in data set [3] (synthetic peptides) of 1.23 mM.

For `CC[C@H](C)[C@H](NC(=O)[C@@H](N)CC(C)C)C(=O)N[C@H](C(=O)N1CCC[C@H]1C(=O)N[C@@H](CCC(N)=O)C(=O)O)[C@@H](C)CC` [LIIPQ] (H-LIIPQ-OH; N-terminus and C-terminus assumed), the IC50 in data set [3] (synthetic peptides) was 2.39 mM.

For the molecule `CC[C@H](C)[C@H](NC(=O)[C@@H](N)CC(C)C)C(=O)N[C@H](C(=O)N1CCC[C@H]1C(=O)O)[C@@H](C)CC` [LIIP] (H-LIIP-OH; N-terminus and C-terminus assumed), in data set [3] (synthetic peptides), the midpoint of inhibition, the IC50, lay at 2.04 mM.

As for `CC[C@H](C)[C@H](NC(=O)[C@H](CC(C)C)NC(=O)[C@@H](N)CC(C)C)C(=O)N[C@H](C(=O)N1CCC[C@H]1C(=O)N[C@@H](CCC(N)=O)C(=O)N[C@@H](Cc1c[nH]cn1)C(=O)O)[C@@H](C)CC` [LLIIPQH] (H-LLIIPQH-OH; N-terminus and C-terminus assumed), half-maximal inhibition in data set [3] (synthetic peptides) (IC50) was put at 0.995 mM.
